Molecular target: T1, ESR1 (Mus musculus, UniProt P19785)
T1 construct: tissue Charles River (mice); host or cells: uterus of ovariectomized female C57Bl/6 mice
T1 sequence (P19785 1-599): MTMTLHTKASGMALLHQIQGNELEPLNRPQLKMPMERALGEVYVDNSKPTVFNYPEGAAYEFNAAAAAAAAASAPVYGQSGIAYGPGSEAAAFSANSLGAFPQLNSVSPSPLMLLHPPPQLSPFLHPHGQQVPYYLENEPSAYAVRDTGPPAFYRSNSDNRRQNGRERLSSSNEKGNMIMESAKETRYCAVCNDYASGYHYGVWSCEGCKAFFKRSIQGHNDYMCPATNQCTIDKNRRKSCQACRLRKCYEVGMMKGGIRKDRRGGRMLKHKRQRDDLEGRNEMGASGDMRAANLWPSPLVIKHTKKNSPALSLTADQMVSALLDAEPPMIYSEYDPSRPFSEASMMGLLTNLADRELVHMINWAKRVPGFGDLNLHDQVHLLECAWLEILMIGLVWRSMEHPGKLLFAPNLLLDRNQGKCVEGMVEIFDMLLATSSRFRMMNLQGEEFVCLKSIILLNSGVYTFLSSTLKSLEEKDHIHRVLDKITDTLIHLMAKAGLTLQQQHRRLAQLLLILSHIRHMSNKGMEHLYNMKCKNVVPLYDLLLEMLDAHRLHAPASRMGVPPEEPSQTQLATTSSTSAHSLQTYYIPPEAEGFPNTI
Test: Uterine wet weight analysis in ovariectomized C57Bl/6 mice
Type: in vivo
Conditions: for uterine wet weight, single agent: without E2
Method: Uterine wet weight analysis: Ovariectomized (10 days prior) female C57Bl/6 mice (Charles River) were treated daily (n=5) for 3 days with vehicle or estradiol benzoate (10 μg/kg sc) as well as vehicle, raloxifene (10 mg/kg sc), or RAD1901 (0.1-100 mg/kg sc). Ligands were dissolved in corn oil (Spectrum chemicals). On day 4, mice were euthanized and tissues were retained for analysis. Uterine wet weight was calculated as a ratio of uterus weight upon removal to body weight post-mortem.
As a first step, the impact of RAD1901 on uterine wet weight in mice was evaluated. For this study, increasing doses of RAD1901 was administered daily to ovariectomized C57Bl/6 mice receiving vehicle alone or E2 (10 μg/kg; a physiological replacement dose). A group of mice receiving 10 mg/kg of raloxifene was included for comparative purposes and for reference. Ovariectomized C57Bl/6 mice (n=5) were treated daily for 3 days with (FIG. 8A) vehicle or (FIG. 8B) estradiol (10 μg/kg) together with vehicle, Ralox (10 mg/kg) or RAD1901 (RAD), ([…]). At euthanasia, body weight as well as uterine wet weight was measured prior to cryopreservation of the uterus. […] For FIG. 8C, ESR1 and β-actin expression in extracts made from pulverized uterine tissues were analyzed by immunoblot as in FIG. 5 (left). ESR1 expression relative to β-actin was quantitated as in FIG. 6 (right). Significant downregulation (*p<0.05) of ESR1 was determined by ANOVA followed by Bonferroni comparison.

Compound: CCNCCc1ccc(CN(CC)c2cc(OC)ccc2[C@@H]2CCc3cc(O)ccc3C2)cc1 [RAD1901, (R)-6-{2-{ethyl[4-(2-ethylaminoethyl)benzyl]amino}-4-methoxyphenyl}-5,6,7,8-tetrahydronaphthalen-2-ol]
- ESR1 expression in uterine tissue (immunoblot) (0.3 mg/kg): no decrease in ESR1 expression
- uterine wet weight, single agent (0.3 mg/kg sc daily for 3 days): statistically significant increase
- ESR1 expression in uterine tissue (immunoblot) (RAD1901 0.3-100 mg/kg): dose dependent downregulation
- uterine wet weight, single agent (doses of 1 mg/kg and above, sc daily for 3 days): indistinguishable from vehicle treated animals
- E2-dependent increases in uterine wet weight (with estradiol 10 μg/kg, RAD1901 0.3-100 mg/kg): inhibit E2-dependent increases in uterine wet weight
